Source: patent US9499535B2, “Kinase inhibitors” (ORIGENIS GMBH, priority 2011, dated 2016)
Where two headings read alike, the source gives them in different places.

Experiments:
SYK kinase = biological target: T1, SYK kinase (Homo sapiens, UniProt P43405); experiment: SYK assay (OMNIA Kinase Assay, Invitrogen); assay type: biochemical; details: apparent Ki calculated from the IC50 using the Cheng-Prusoff equation; 1 mM ATP, 10 μM Peptide Substrate; read-out: SYK Activities: Ki
T1 construct: purchased Invitrogen, Carlsbad
Summary of the method: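 Continuous SOX-fluorescence (Omnia) readout of Tyr 7 peptide (10 μM) phosphorylation with 1 mM ATP and 0.2 mM DTT at 30° C, started by SYK addition. Fluorescence (λex 360/λem 485 nm) was read every 30 s for 30 min. IC50 from velocity vs concentration; apparent Ki via Cheng-Prusoff.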

MYLK = MYLK (Homo sapiens, UniProt Q15746); experiment: MYLK assay (LanthaScreen Eu Kinase Binding Assay)
Procedure: In the assay LanthaScreen™ Eu Kinase Binding Assay by Invitrogen Corporation (Carlsbad) the effect of invention of a compound on the phosphorylation is determined by measurement of fluorescence intensity emission ratio based on the binding and displacement of a proprietary, Alexa Fluor® 647-labeled, ATP-competitive kinase inhibitor scaffold (kinase tracer) to the kinase of interest as described above.
To the wells of an 384 well small volume plate (Greiner, Frickenhausen) are added (i) the compound under test in 5% DMSO/distilled water (5 μl), (ii) 5 μl of the kinase antibody mixture resulting in a final concentration 5 nM MYLK, 2 nM EU-Anti-GST antibody in 1× kinase buffer A. The reaction was started with addition of (iii) 5 μl resulting in a final concentration of 30 nM tracer 236. The assay plate was incubated at RT for 1 h and fluorescence intensitiy readings were collected using a TECAN M1000 at two wavelengthes of λex 340/λem 615 nm and λex 340/λem 665 nm with a delay time of 100 μs and an integration time of 200 μs after 60 minutes. The emission ratio was calculated by division of the acceptor/tracer emission ([…]) by the antibody/donor emission ([…]). The inhibitor concentration was plotted versus the emission ratio to determine the IC50 using XLFit 5.0 (IDBS, Guildford) to fit to a sigmoidal dose response curve with a variable slope.

LRRK2 = LRRK2 (Homo sapiens, UniProt Q5S007); experiment: LRRK2 assay (LanthaScreen Eu Kinase Binding Assay)
Summary of the method: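 Kinase binding was detected by europium anti-tag antibody FRET with a competing tracer, so inhibitor binding lowers the FRET signal. IC50 came from a variable-slope sigmoidal fit of emission ratio against inhibitor concentration.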

[1] = 5 nM MYLK, 30 nM tracer 236, RT 1 h, read-out: MYLK Activites: IC50
[2] = 5 nM LRRK2, 10 nM tracer 236, RT 1 h, read-out: LRRK2 Activites: IC50
[3] = LRRK2 Activites: IC50, 5 nM LRRK2, 10 nM tracer 236, RT 1 h

Chain of LRRK2 (Q5S007 970-2527 limits assumed): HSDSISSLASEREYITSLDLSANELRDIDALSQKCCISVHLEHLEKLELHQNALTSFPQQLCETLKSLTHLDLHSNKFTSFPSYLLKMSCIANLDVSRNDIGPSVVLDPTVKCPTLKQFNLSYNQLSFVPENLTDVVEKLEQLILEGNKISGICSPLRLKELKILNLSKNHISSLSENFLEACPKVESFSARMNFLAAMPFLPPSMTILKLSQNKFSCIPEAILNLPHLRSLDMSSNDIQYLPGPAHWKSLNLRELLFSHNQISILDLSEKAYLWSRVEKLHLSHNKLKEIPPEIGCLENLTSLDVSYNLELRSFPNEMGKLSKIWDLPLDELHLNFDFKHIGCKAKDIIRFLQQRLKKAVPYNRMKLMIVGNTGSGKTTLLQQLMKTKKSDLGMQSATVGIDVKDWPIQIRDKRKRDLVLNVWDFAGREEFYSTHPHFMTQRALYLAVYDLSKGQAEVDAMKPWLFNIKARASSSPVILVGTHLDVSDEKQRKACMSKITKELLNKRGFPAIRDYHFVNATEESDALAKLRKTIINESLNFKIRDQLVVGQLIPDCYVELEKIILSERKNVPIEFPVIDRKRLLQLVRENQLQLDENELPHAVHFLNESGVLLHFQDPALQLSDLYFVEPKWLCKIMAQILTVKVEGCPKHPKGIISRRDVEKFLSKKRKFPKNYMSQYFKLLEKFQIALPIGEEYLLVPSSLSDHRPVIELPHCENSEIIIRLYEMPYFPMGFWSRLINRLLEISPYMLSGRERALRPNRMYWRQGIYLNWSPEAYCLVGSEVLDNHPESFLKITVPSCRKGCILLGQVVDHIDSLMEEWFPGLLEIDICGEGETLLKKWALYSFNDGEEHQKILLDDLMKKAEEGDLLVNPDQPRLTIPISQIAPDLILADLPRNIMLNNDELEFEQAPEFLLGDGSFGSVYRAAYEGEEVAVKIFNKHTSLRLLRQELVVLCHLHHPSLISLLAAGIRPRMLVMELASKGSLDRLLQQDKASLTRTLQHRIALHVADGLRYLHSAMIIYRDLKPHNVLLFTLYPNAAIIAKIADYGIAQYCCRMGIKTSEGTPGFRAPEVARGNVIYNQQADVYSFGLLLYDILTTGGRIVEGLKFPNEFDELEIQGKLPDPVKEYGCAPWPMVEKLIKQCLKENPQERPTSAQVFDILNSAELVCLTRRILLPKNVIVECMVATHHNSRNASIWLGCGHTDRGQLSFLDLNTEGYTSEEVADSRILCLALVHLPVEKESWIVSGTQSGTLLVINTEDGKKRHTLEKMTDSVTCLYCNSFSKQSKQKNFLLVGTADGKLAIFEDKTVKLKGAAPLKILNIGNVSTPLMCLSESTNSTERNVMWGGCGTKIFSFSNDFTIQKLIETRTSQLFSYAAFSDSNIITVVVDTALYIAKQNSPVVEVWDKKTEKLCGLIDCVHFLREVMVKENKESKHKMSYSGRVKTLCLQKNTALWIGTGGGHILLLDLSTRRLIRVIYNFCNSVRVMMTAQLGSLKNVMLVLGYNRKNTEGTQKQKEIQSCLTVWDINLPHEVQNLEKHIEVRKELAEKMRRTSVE
Chain of MYLK (Q15746 whole entry): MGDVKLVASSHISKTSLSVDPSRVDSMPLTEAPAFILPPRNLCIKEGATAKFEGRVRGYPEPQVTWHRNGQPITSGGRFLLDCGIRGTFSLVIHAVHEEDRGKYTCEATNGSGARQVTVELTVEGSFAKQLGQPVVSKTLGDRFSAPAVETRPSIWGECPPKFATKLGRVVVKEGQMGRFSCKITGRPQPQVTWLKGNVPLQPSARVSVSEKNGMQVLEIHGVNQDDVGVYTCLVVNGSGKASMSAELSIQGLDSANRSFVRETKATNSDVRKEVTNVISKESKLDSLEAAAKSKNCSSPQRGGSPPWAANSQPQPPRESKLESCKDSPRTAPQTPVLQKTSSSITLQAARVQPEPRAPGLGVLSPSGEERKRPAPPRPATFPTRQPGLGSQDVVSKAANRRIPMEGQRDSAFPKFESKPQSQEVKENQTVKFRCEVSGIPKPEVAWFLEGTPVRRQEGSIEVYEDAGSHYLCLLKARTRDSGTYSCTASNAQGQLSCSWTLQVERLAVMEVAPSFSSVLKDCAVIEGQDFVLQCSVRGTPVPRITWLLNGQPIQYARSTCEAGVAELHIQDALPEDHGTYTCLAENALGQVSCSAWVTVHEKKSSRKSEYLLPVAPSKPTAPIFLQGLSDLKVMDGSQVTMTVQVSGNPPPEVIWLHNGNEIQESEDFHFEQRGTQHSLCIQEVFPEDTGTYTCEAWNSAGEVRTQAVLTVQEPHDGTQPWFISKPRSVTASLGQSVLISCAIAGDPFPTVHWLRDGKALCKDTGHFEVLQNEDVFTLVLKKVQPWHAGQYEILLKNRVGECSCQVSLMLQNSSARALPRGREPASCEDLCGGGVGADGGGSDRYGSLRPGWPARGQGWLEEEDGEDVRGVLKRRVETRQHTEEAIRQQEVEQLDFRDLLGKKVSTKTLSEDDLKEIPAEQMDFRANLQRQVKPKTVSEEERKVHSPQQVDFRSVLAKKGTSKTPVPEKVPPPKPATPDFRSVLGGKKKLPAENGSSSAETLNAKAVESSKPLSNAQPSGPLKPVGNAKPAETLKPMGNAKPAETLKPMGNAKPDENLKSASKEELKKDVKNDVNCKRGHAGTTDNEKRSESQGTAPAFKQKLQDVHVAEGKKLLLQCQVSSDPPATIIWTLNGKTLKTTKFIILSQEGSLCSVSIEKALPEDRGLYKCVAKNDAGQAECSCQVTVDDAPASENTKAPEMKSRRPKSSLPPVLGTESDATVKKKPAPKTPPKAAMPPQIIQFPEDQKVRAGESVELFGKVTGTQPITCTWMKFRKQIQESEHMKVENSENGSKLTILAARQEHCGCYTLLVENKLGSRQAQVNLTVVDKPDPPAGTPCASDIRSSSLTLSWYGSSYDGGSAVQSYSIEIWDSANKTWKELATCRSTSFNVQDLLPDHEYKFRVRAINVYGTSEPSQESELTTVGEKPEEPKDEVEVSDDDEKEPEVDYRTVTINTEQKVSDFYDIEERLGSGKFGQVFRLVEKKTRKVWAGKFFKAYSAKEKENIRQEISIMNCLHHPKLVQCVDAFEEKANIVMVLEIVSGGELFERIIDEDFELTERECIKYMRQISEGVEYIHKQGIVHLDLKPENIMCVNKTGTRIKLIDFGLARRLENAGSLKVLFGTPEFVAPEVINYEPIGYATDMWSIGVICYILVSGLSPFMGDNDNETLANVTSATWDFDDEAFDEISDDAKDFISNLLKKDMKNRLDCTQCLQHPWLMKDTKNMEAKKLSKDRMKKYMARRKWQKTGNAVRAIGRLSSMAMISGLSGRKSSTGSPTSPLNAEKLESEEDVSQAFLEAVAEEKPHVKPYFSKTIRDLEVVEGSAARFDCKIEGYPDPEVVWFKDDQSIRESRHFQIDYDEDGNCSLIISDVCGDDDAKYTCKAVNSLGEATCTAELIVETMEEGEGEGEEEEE

Structure (SMILES) | Ki (SYK kinase) [nM] | IC50 (MYLK; [1]) [nM] | IC50 (LRRK2; [2]) [nM] | IC50 (MYLK) [nM] | IC50 (LRRK2; [3]) [nM]
COc1cccc2nc(Nc3cc(C4CC4)[nH]n3)c3n[nH]cc3c12 [Example #199, (5-Cyclopropyl-1H-pyrazol-3-yl)-(9-methoxy-2H-pyrazolo[3,4-c]quinolin-4-yl)-amine] | 10 to 100 | < 5000 | 10 to 100 | – | –
COc1ccc2nc(Nc3ccc(N4CCN(C(C)C)CC4)cc3)c3n[nH]cc3c2c1 [Example #271, [4-(4-Isopropyl-piperazin-1-yl)-phenyl]-(8-methoxy-2H-pyrazolo[3,4-c]quinolin-4-yl)-amine] | < 10 | < 5000 | 10 to 100 | – | –
COc1cccc2nc(Nc3ccc(N4CCOCC4)cc3)c3n[nH]cc3c12 [Example #202, (9-Methoxy-2H-pyrazolo[3,4-c]quinolin-4-yl)-(4-morpholin-4-yl-phenyl)-amine] | 10 to 100 | < 5000 | 10 to 100 | – | –
COc1ccc2nc(Nc3cccc([S+](C)[O-])c3)c3n[nH]cc3c2c1 (centres unmarked) [Example #346, 8-methoxy-N-(3-(methylsulfinyl)phenyl)-2H-pyrazolo[3,4-c]quinolin-4-amine] | 100 to 1000 | < 5000 | 100 to 1000 | – | –
COc1ccc2nc(Nc3cccc(N)c3)c3n[nH]cc3c2c1 [Example #44, N-(8-Methoxy-2H-pyrazolo[3,4-c]quinolin-4-yl)-benzene-1,3-diamine] | 10 to 100 | < 5000 | 10 to 100 | – | –
COc1ccc2nc(Nc3ccc(N4CCN(C)CC4)nc3)c3n[nH]cc3c2c1 [Example #165, (8-Methoxy-2H-pyrazolo[3,4-c]quinolin-4-yl)-[6-(4-methyl-piperazin-1-yl)-pyridin-3-yl]-amine] | 10 to 100 | < 5000 | 10 to 100 | – | –
COc1cccc2nc(Nc3ccc(N4CCN(C)CC4)cc3)c3n[nH]cc3c12 [Example #201, (9-Methoxy-2H-pyrazolo[3,4-c]quinolin-4-yl)-[4-(4-methyl-piperazin-1-yl)-phenyl]-amine] | 10 to 100 | < 5000 | 100 to 1000 | – | –
COc1ccc2nc(Nc3ccc(N4CCN(C(C)=O)CC4)cc3)c3n[nH]cc3c2c1 [Example #164, 1-{4-[4-(8-Methoxy-2H-pyrazolo[3,4-c]quinolin-4-ylamino)-phenyl]-piperazin-1-yl}-ethanone] | < 10 | < 5000 | 10 to 100 | – | –
COc1ccc2nc(Nc3ccc4c(c3)nc3n4CCN(C)C3)c3n[nH]cc3c2c1 [Example #160, (8-Methoxy-2H-pyrazolo[3,4-c]quinolin-4-yl)-(2-methyl-1,2,3,4-tetrahydro-benzo[4,5]imidazo[1,2-a]pyrazin-8-yl)-amine] | 10 to 100 | < 5000 | 100 to 1000 | – | –
COc1ccc2nc(Nc3ccc4c(c3)ncn4C)c3n[nH]cc3c2c1 [Example #126, (8-Methoxy-2H-pyrazolo[3,4-c]quinolin-4-yl)-(1-methyl-1H-benzoimidazol-5-yl)-amine] | 100 to 1000 | < 5000 | 100 to 1000 | – | –
COc1cccc2nc(Nc3ccc4cn[nH]c4c3)c3n[nH]cc3c12 [Example #203, (1H-Indazol-6-yl)-(9-methoxy-2H-pyrazolo[3,4-c]quinolin-4-yl)-amine] | 10 to 100 | < 5000 | 10 to 100 | – | –
COc1ccc2nc(Nc3ccc4c(c3)CCCN4C)c3n[nH]cc3c2c1 [Example #308, 8-methoxy-N-(1-methyl-1,2,3,4-tetrahydroquinolin-6-yl)-2H-pyrazolo[3,4-c]quinolin-4-amine] | 10 to 100 | < 5000 | 100 to 1000 | – | –
COc1ccc2c(c1)nc(Nc1ccc3cn[nH]c3c1)c1n[nH]cc12 [Example #172, (1H-Indazol-6-yl)-(7-methoxy-2H-pyrazolo[3,4-c]quinolin-4-yl)-amine] | 10 to 100 | < 5000 | 100 to 1000 | – | –
COc1ccc2nc(Nc3cccc(C(C)=O)c3)c3n[nH]cc3c2c1 [Example #127, 1-[3-(8-Methoxy-2H-pyrazolo[3,4-c]quinolin-4-ylamino)-phenyl]-ethanone] | – | < 5000 | 100 to 1000 | – | –
COc1ccc2nc(Nc3ccc(C(=O)N4CCC(N(C)C)C4)cc3)c3n[nH]cc3c2c1 (centres unmarked) [Example #307, (3-(dimethylamino)pyrrolidin-1-yl)(4-((8-methoxy-2H-pyrazolo[3,4-c]quinolin-4-yl)amino)phenyl)methanone] | – | < 5000 | 100 to 1000 | – | –
COc1ccc2nc(Nc3ccc(C(=O)N4CCC(=O)CC4)cc3)c3n[nH]cc3c2c1 [Example #305, 1-(4-((8-methoxy-2H-pyrazolo[3,4-c]quinolin-4-yl)amino)benzoyl)piperidin-4-one] | – | – | – | < 5000 | 10 to 100
COc1cccc2nc(Nc3ccc4c(c3)CN(C)C4)c3[nH]ncc3c12 [Example #352, 9-methoxy-N-(2-methylisoindolin-5-yl)-3H-pyrazolo[3,4-c]quinolin-4-amine] | – | < 5000 | 10 to 100 | – | –
COc1ccc2nc(Nc3ccc(C(N)=O)cc3)c3n[nH]cc3c2c1 [Example #58, 4-(8-Methoxy-2H-pyrazolo[3,4-c]quinolin-4-ylamino)-benzamide] | 10 to 100 | < 5000 | – | – | –
COc1ccc2nc(Nc3ccc(C(=O)N4CCCN(C)CC4)cc3)c3n[nH]cc3c2c1 [Example #304, (4-((8-methoxy-2H-pyrazolo[3,4-c]quinolin-4-yl)amino)phenyl)(4-methyl-1,4-diazepan-1-yl)methanone] | – | < 5000 | 100 to 1000 | – | –
COc1cccc2c1nc(Nc1ccccc1)c1n[nH]cc12 [Example #261, (6-Methoxy-2H-pyrazolo[3,4-c]quinolin-4-yl)-phenyl-amine] | 10 to 100 | < 5000 | – | – | –
CN1CCN(c2ccc(Nc3nc4ccc(F)cc4c4cn[nH]c34)cc2)CC1 [Example #326, 8-fluoro-N-(4-(4-methylpiperazin-1-yl)phenyl)-3H-pyrazolo[3,4-c]quinolin-4-amine] | 10 to 100 | < 5000 | – | – | –
COc1ccc(Nc2nc3ccc(F)cc3c3cn[nH]c23)cc1OC [Example #327, N-(3,4-dimethoxyphenyl)-8-fluoro-3H-pyrazolo[3,4-c]quinolin-4-amine] | 100 to 1000 | < 5000 | – | – | –
COc1ccc2nc(Nc3ccc4ncc(=O)[nH]c4c3)c3n[nH]cc3c2c1 [Example #194, 7-(8-Methoxy-2H-pyrazolo[3,4-c]quinolin-4-ylamino)-1H-quinoxalin-2-one] | 100 to 1000 | < 5000 | – | – | –
COc1ccc2nc(Nc3ccc(C(=O)N4CCC5(CC4)OCCO5)cc3)c3n[nH]cc3c2c1 [Example #306, (4-((8-methoxy-2H-pyrazolo[3,4-c]quinolin-4-yl)amino)phenyl)(1,4-dioxa-8-azaspiro[4.5]decan-8-yl)methanone] | – | – | – | < 5000 | 10 to 100
COc1cccc2c1nc(Nc1ccc(CN3CCN(C)CC3)cc1)c1n[nH]cc12 [Example #278, (6-Methoxy-2H-pyrazolo[3,4-c]quinolin-4-yl)-[4-(4-methyl-piperazin-1-ylmethyl)-phenyl]-amine] | 100 to 1000 | < 5000 | – | – | –
COc1ccc2nc(Nc3ccc(C(=O)N4CCC(N5CCN(C)CC5)CC4)cc3OC)c3n[nH]cc3c2c1 [Example #295, (3-methoxy-4-((8-methoxy-2H-pyrazolo[3,4-c]quinolin-4-yl)amino)phenyl)(4-(4-methylpiperazin-1-yl)piperidin-1-yl)methanone] | – | < 5000 | 10 to 100 | – | –
